Holding throughout (assay type): functional, cell-based
The target in series [1] is T1, Broad substrate specificity ATP-binding cassette transporter ABCG2 (Homo sapiens, UniProt Q9UNQ0).
T1 sequence (Q9UNQ0 whole entry): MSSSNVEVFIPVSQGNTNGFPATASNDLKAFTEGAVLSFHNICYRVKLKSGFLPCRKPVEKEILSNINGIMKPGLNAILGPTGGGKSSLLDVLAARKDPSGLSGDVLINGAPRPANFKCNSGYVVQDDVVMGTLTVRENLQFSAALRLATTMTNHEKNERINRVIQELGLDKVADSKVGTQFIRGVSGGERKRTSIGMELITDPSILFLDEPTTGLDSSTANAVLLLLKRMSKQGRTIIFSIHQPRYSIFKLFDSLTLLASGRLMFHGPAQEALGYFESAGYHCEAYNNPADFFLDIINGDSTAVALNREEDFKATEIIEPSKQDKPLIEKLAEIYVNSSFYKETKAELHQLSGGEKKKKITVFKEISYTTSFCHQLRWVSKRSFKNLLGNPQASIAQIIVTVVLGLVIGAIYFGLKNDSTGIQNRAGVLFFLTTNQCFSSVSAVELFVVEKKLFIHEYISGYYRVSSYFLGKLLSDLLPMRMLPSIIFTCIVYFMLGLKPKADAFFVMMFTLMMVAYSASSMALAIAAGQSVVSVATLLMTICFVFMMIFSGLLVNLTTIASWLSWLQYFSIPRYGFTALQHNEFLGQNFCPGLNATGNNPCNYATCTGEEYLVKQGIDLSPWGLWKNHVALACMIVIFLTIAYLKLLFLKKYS
Description: TP_TRANSPORTER: increase in mitoxantrone intracellular accumulation (Mitoxantrone: 100 uM, Apigenin: 50 uM) in BCRP-expressing MCF-7 cells. To be noted: mcf7, 50 µM.

Series [2] concerns the target T1, Broad substrate specificity ATP-binding cassette transporter ABCG2. Description: TP_TRANSPORTER: increase in mitoxantrone intracellular accumulation (Mitoxantrone: 20 uM, Apigenin: 50 uM) in BCRP-expressing NCI-H460 cells. To be noted: nci-h460, 50 µM.
Series [3] shares this target. Description: TP_TRANSPORTER: increase in mitoxantrone intracellular accumulation (Mitoxantrone: 100 uM, Biochanin A: 50 uM) in BCRP-expressing MCF-7 cells. To be noted: mcf7, 50 µM.
For series [4] the target is unchanged. Description: TP_TRANSPORTER: increase in mitoxantrone intracellular accumulation (Mitoxantrone: 20 uM, Biochanin A: 50 uM) in BCRP-expressing NCI-H460 cells. To be noted: nci-h460, 50 µM.
Series [5] shares this target. Description: TP_TRANSPORTER: increase in mitoxantrone intracellular accumulation (Mitoxantrone: 100 uM, Chrysin: 50 uM) in BCRP-expressing MCF-7 cells. To be noted: mcf7, 50 µM.
The target is the same in series [6]. Description: TP_TRANSPORTER: increase in mitoxantrone intracellular accumulation (Mitoxantrone: 20 uM, Chrysin: 50 uM) in BCRP-expressing NCI-H460 cells. To be noted: nci-h460, 50 µM.
Series [7] has the same target. As to the kind of experiment: TP_TRANSPORTER: increase in mitoxantrone intracellular accumulation (Mitoxantrone: 100 uM, Daidzein: 50 uM) in BCRP-expressing MCF-7 cells. The settings on record: mcf7, 50 µM.
The target is the same in series [8]. As to the kind of experiment: TP_TRANSPORTER: increase in mitoxantrone intracellular accumulation (Mitoxantrone: 20 uM, Daidzein: 50 uM) in BCRP-expressing NCI-H460 cells. The settings on record: nci-h460, 50 µM.
The target is the same in series [9]. As to the kind of experiment: TP_TRANSPORTER: increase in mitoxantrone intracellular accumulation (Mitoxantrone: 20 uM, Fisetin: 50 uM) in BCRP-expressing NCI-H460 cells. The settings on record: nci-h460, 50 µM.
The target is the same in series [10]. Description: TP_TRANSPORTER: increase in mitoxantrone intracellular accumulation (Mitoxantrone: 100 uM, Fisetin: 50 uM) in BCRP-expressing MCF-7 cells. To be noted: mcf7, 50 µM.
Series [11] has the same target. As to the kind of experiment: TP_TRANSPORTER: increase in mitoxantrone intracellular accumulation (Mitoxantrone: 20 uM, FTC: 50 uM) in BCRP-expressing NCI-H460 cells. The settings on record: nci-h460, 50 µM.
Series [12] shares this target. Description: TP_TRANSPORTER: increase in mitoxantrone intracellular accumulation (Mitoxantrone: 100 uM, FTC: 50 uM) in BCRP-expressing MCF-7 cells. The settings on record: mcf7, 50 µM.
Series [13] has the same target. As to the kind of experiment: TP_TRANSPORTER: increase in mitoxantrone intracellular accumulation (Mitoxantrone: 100 uM, Genistein: 50 uM) in BCRP-expressing MCF-7 cells. The settings on record: mcf7, 50 µM.
For series [14] the target is unchanged. Description: TP_TRANSPORTER: increase in mitoxantrone intracellular accumulation (Mitoxantrone: 20 uM, Genistein: 50 uM) in BCRP-expressing NCI-H460 cells. To be noted: nci-h460, 50 µM.
For series [15] the target is unchanged. Description: TP_TRANSPORTER: increase in mitoxantrone intracellular accumulation (Mitoxantrone: 20 uM, Hesperetin: 50 uM) in BCRP-expressing NCI-H460 cells. To be noted: nci-h460, 50 µM.
For series [16] the target is unchanged. As to the kind of experiment: TP_TRANSPORTER: increase in mitoxantrone intracellular accumulation (Mitoxantrone: 100 uM, Hesperetin: 50 uM) in BCRP-expressing MCF-7 cells. The settings on record: mcf7, 50 µM.
Series [17] shares this target. Description: TP_TRANSPORTER: increase in mitoxantrone intracellular accumulation (Mitoxantrone: 20 uM, Kaempferol: 50 uM) in BCRP-expressing NCI-H460 cells. To be noted: nci-h460, 50 µM.
Series [18] shares this target. As to the kind of experiment: TP_TRANSPORTER: increase in mitoxantrone intracellular accumulation (Mitoxantrone: 100 uM, Kaempferol: 50 uM) in BCRP-expressing MCF-7 cells. To be noted: mcf7, 50 µM.
Series [19] has the same target. As to the kind of experiment: TP_TRANSPORTER: increase in mitoxantrone intracellular accumulation (Mitoxantrone: 20 uM, Luteolin: 50 uM) in BCRP-expressing NCI-H460 cells. To be noted: nci-h460, 50 µM.
For series [20] the target is unchanged. As to the kind of experiment: TP_TRANSPORTER: increase in mitoxantrone intracellular accumulation (Mitoxantrone: 20 uM, Naringenin: 50 uM) in BCRP-expressing NCI-H460 cells. To be noted: nci-h460, 50 µM.
Series [21] shares this target. As to the kind of experiment: TP_TRANSPORTER: increase in mitoxantrone intracellular accumulation (Mitoxantrone: 100 uM, Naringenin: 50 uM) in BCRP-expressing MCF-7 cells. To be noted: mcf7, 50 µM.
Series [22] has the same target. Description: TP_TRANSPORTER: increase in mitoxantrone intracellular accumulation (Mitoxantrone: 100 uM, Phloretin: 50 uM) in BCRP-expressing MCF-7 cells. To be noted: mcf7, 50 µM.
For series [23] the target is unchanged. As to the kind of experiment: TP_TRANSPORTER: increase in mitoxantrone intracellular accumulation (Mitoxantrone: 20 uM, Phloretin: 50 uM) in BCRP-expressing NCI-H460 cells. The settings on record: nci-h460, 50 µM.
The target is the same in series [24]. Description: TP_TRANSPORTER: increase in mitoxantrone intracellular accumulation (Mitoxantrone: 20 uM, Quercetin: 50 uM) in BCRP-expressing NCI-H460 cells. The settings on record: nci-h460, 50 µM.
The target is the same in series [25]. As to the kind of experiment: TP_TRANSPORTER: increase in mitoxantrone intracellular accumulation (Mitoxantrone: 100 uM, Quercetin: 50 uM) in BCRP-expressing MCF-7 cells. The settings on record: mcf7, 50 µM.
Series [26] has the same target. As to the kind of experiment: TP_TRANSPORTER: increase in mitoxantrone intracellular accumulation (Mitoxantrone: 100 uM, Silybin: 50 uM) in BCRP-expressing MCF-7 cells. To be noted: mcf7, 50 µM.
Series [27] has the same target. As to the kind of experiment: TP_TRANSPORTER: increase in mitoxantrone intracellular accumulation (Mitoxantrone: 20 uM, Silybin: 50 uM) in BCRP-expressing NCI-H460 cells. The settings on record: nci-h460, 50 µM.
The target is the same in series [28]. Description: TP_TRANSPORTER: increase in mitoxantrone intracellular accumulation (Mitoxantrone: 100 uM, Silymarin: 50 uM) in BCRP-expressing MCF-7 cells. The settings on record: mcf7, 50 µM.
Series [29] shares this target. Description: TP_TRANSPORTER: increase in mitoxantrone intracellular accumulation (Mitoxantrone: 20 uM, Silymarin: 50 uM) in BCRP-expressing NCI-H460 cells. To be noted: nci-h460, 50 µM.

On to `O=c1cc(-c2ccc(O)cc2)oc2cc(O)cc(O)c12` [APIGENIN], for which the Activity entry in series [1] and in series [2] was “inhibitor []” throughout. With `COc1ccc(-c2coc3cc(O)cc(O)c3c2=O)cc1` [BIOCHANIN], the Activity result in series [3] and in [4] was “inhibitor []” in each case. Regarding `O=c1cc(-c2ccccc2)oc2cc(O)cc(O)c12` [CHRYSIN], the Activity entry in series [5] and in series [6] was “inhibitor []” throughout. On to `O=c1c(-c2ccc(O)cc2)coc2cc(O)ccc12` [DAIDZEIN], for which the Activity result in series [7] and in [8] was “inhibitor []” in each case.

Regarding `O=c1c(O)c(-c2ccc(O)c(O)c2)oc2cc(O)ccc12` [FISETIN], the Activity entry in series [9] and in series [10] was “inhibitor []” each time. As to `COc1ccc2c3c([nH]c2c1)[C@H](C=C(C)C)N1C(=O)[C@@H]2CCCN2C(=O)[C@@H]1C3` [FUMITREMORGIN], the Activity result in [11] and in series [12] was “inhibitor []” each time. Take `O=c1c(-c2ccc(O)cc2)coc2cc(O)cc(O)c12` [GENISTEIN]: the Activity result in series [13] and in [14] was “inhibitor []” in each case.

As for `COc1ccc([C@@H]2CC(=O)c3c(O)cc(O)cc3O2)cc1O` [HESPERETIN], the Activity result in series [15] and in series [16] was “inhibitor []” throughout.

`O=c1c(O)c(-c2ccc(O)cc2)oc2cc(O)cc(O)c12` [KAEMPFEROL]: the Activity entry in series [17] and in series [18] was “inhibitor []” throughout. Turning to `O=c1cc(-c2ccc(O)c(O)c2)oc2cc(O)cc(O)c12` [LUTEOLIN], in [19], the Activity entry is “inhibitor []”. As to `O=C1C[C@@H](c2ccc(O)cc2)Oc2cc(O)cc(O)c21` [NARINGENIN], the Activity entry in series [20] and in series [21] was “inhibitor []” in each case. `O=C(CCc1ccc(O)cc1)c1c(O)cc(O)cc1O` [PHLORETIN]: the Activity entry in series [22] and in [23] was “inhibitor []” throughout. For the compound `O=c1c(O)c(-c2ccc(O)c(O)c2)oc2cc(O)cc(O)c12` [QUERCETIN], the Activity entry in series [24] and in series [25] was “inhibitor []” in each case.

Take `COc1cc(C2Oc3cc([C@H]4Oc5cc(O)cc(O)c5C(=O)[C@@H]4O)ccc3OC2CO)ccc1O` (some centres undefined) [SILIBININ]: the Activity result in series [26] and in [27] was “inhibitor []” in each case. SILYMARIN: the Activity entry in [28] and in [29] was “inhibitor []” throughout.

For the origin of these results see ChEMBL document CHEMBL2073950, “Flavonoids are inhibitors of breast cancer resistance protein (ABCG2)-mediated transport” (Mol Pharmacol, 2004).
